This is an account of results in ChEMBL document CHEMBL5584354, “Impact of Conjugation of the Reactive Oxygen Species (ROS)-Generating Catalytic Moiety with Membrane-Active Antimicrobial Peptoids: Promoting Multitarget Mechanism and Enhancing Selectivity” (J Med Chem, 2024).

Series [1] is described as follows: Hemolytic activity in male Sprague-Dawley rat erythrocytes assessed as concentration required for 50% hemolysis incubated for 1 hr by absorbance based method. Format: toxicity, cell-based, Erythrocyte.
A further series has as its system Escherichia coli. In words: Antibacterial activity against Escherichia coli ATCC 25922 assessed as inhibition of bacterial growth incubated for 24 hrs by broth dilution method. Format: functional.
A short description of series [2]: Hemolytic activity in male Sprague-Dawley rat erythrocytes at 50 uM incubated for 1 hr by absorbance based method relative to control. Type of series: toxicity, cell-based, Erythrocyte. To be noted: read-out: Activity.
A short description of series [3]: Selectivity index, ratio of HC10 for hemolytic activity in male Sprague-Dawley rat erythrocytes to MIC for antibacterial activity against Escherichia coli ATCC 25922. Type of series: toxicity. To be noted: read-out: Selectivity Index.
The next series relates to Staphylococcus aureus. In words: Antibacterial activity against Staphylococcus aureus ATCC 25923 assessed as inhibition of bacterial growth incubated for 24 hrs by broth dilution method. Format: functional.
A short description of series [4]: Hemolytic activity in male Sprague-Dawley rat erythrocytes at 25 uM incubated for 1 hr by absorbance based method relative to control. The following applies: read-out: Activity. Format: toxicity, cell-based, Erythrocyte.
A short description of series [5]: Hemolytic activity in male Sprague-Dawley rat erythrocytes at 100 uM incubated for 1 hr by absorbance based method relative to control. Type of series: toxicity, cell-based, Erythrocyte. The following applies: read-out: Activity.
The next series has as its system Erythrocyte. In words: Hemolytic activity in male Sprague-Dawley rat erythrocytes assessed as concentration required for 10% hemolysis incubated for 1 hr by absorbance based method. Type of series: toxicity, cell-based.

Converted amounts (≈) assume the structure as drawn. Non-standard residues stand in square brackets, D forms with d. Residues, ends and D or L forms follow the SMILES beside them. *: point of attachment. X3 = NC(=O)[C@H](Cc1c[nH]cn1)NC(=O)CNC(=O)[C@@H](N)CN(CCc1c[nH]c2ccccc12)*; X1 = NC(=O)[C@H](Cc1c[nH]cn1)NC(=O)CNC(=O)[C@@H](N)CN*; Gly(N(CH2)2(3-indolyl)) = O=C(O)CNCCc1c[nH]c2ccccc12; Nspe = C[C@H](NCC(=O)O)c1ccccc1; Nphe = O=C(O)CNCc1ccccc1; Nlys = NCCCCNCC(=O)O Where only a bound is given, the exact number is not on record here.

Consider `C[C@@H](c1ccccc1)N(CC(=O)N(CCCCN)CC(=O)N(CC(=O)N(CC(=O)N(CCCCN)CC(=O)N(CC(=O)N(CC(=O)N(CCCCN)CC(=O)N(CCc1c[nH]c2ccccc12)CC(=O)N(CCc1c[nH]c2ccccc12)CC(N)=O)[C@@H](C)c1ccccc1)[C@@H](C)c1ccccc1)[C@@H](C)c1ccccc1)[C@@H](C)c1ccccc1)C(=O)CN(C(=O)CNCCCCN)[C@@H](C)c1ccccc1` (H-[Nlys][Nspe][Nspe][Nlys][Nspe][Nspe][Nlys][Nspe][Nspe][Nlys][Gly(N(CH2)2(3-indolyl))][Gly(N(CH2)2(3-indolyl))]-NH2), for which the HC50 at 1 h in series [1] amounted to 63.8 µM. In addition, the MIC worked out at 6.3 µM (≈ 12 µg/mL) in the series with Escherichia coli and 1.6 µM (≈ 3.04 µg/mL) in the series with Staphylococcus aureus. The hemolysis at 1 h, 50 µM in series [2] was 50.7%. Also, the selectivity ratio in series [3] was 1.2. In addition, the hemolysis at 1 h, 25 µM in series [4] turned out to be 29.9%. In series [5], the hemolysis at 1 h, 100 µM amounted to 69.4%. Moreover, in the series with Erythrocyte, the HC10 was found to be 7.7 µM.

In the case of `C[C@@H](c1ccccc1)N(CC(=O)N(CCCCN)CC(=O)N(CC(=O)N(CC(=O)N(CCCCN)CC(=O)N(CC(=O)N(CC(N)=O)Cc1ccccc1)Cc1ccccc1)[C@@H](C)c1ccccc1)[C@@H](C)c1ccccc1)C(=O)CN(C(=O)CN(CCCCN)C(=O)CN(Cc1ccccc1)C(=O)CN(Cc1ccccc1)C(=O)CNCCCCN)[C@@H](C)c1ccccc1` (H-[Nlys][Nphe][Nphe][Nlys][Nspe][Nspe][Nlys][Nspe][Nspe][Nlys][Nphe][Nphe]-NH2), the HC50 at 1 h in series [1] worked out at 83 µM. Moreover, the results for the minimal inhibitory concentration (MIC) in the series with Escherichia coli and in the series on Staphylococcus aureus were 6.3 µM (≈ 11.1 µg/mL) and 3.1 µM (≈ 5.47 µg/mL), respectively. In addition, the hemolysis at 1 h, 50 µM in series [2] was 29%. Further, the selectivity ratio in series [3] came to 3.5. Moreover, in series [4], the hemolysis at 1 h, 25 µM came out at 12.5%. In addition, the hemolysis at 1 h, 100 µM in series [5] stood at 60.9%. In the series on Erythrocyte, the HC10 was determined as 22.3 µM.

With `C[C@@H](c1ccccc1)N(CC(=O)NCC(=O)NC[C@H](N)C(=O)NCC(=O)N[C@@H](Cc1c[nH]cn1)C(N)=O)C(=O)CN(CCCCN)C(=O)CN(C(=O)CN(C(=O)CN(CCCCN)C(=O)CN(C(=O)CN(C(=O)CN(CCCCN)C(=O)CN(C(=O)CN(C(=O)CNCCCCN)[C@@H](C)c1ccccc1)[C@@H](C)c1ccccc1)[C@@H](C)c1ccccc1)[C@@H](C)c1ccccc1)[C@@H](C)c1ccccc1)[C@@H](C)c1ccccc1` (H-[Nlys][Nspe][Nspe][Nlys][Nspe][Nspe][Nlys][Nspe][Nspe][Nlys][Nspe]G-X1), the HC50 at 1 h in series [1] was over 100 µM. Besides, the minimum inhibitory concentration (MIC) in the series on Escherichia coli and with Staphylococcus aureus was 12.5 µM (≈ 24.9 µg/mL) each time. Further, the hemolysis at 1 h, 50 µM in series [2] worked out at 8.79%. In addition, in series [3], the selectivity ratio amounted to 4. In addition, in series [4], the hemolysis at 1 h, 25 µM was found to be 2.02%. The hemolysis at 1 h, 100 µM in series [5] was found to be 23.2%. Besides, in the series with Erythrocyte, the HC10 was 51.1 µM.

Take `C[C@@H](c1ccccc1)N(CC(=O)N(CCCCN)CC(=O)N(CC(=O)N(CC(=O)N(CCCCN)CC(=O)N(CC(=O)N(CC(=O)N(CCCCN)CC(=O)N(CCc1c[nH]c2ccccc12)CC(=O)N(CCc1c[nH]c2ccccc12)C[C@H](N)C(=O)NCC(=O)N[C@@H](Cc1c[nH]cn1)C(N)=O)[C@@H](C)c1ccccc1)[C@@H](C)c1ccccc1)[C@@H](C)c1ccccc1)[C@@H](C)c1ccccc1)C(=O)CN(C(=O)CNCCCCN)[C@@H](C)c1ccccc1` (H-[Nlys][Nspe][Nspe][Nlys][Nspe][Nspe][Nlys][Nspe][Nspe][Nlys][Gly(N(CH2)2(3-indolyl))]-X3): in series [1], the concentration for 50% haemolysis (HC50) at 1 h is over 100 µM. Also, the minimal inhibitory concentration (MIC) with Escherichia coli worked out at 6.3 µM (≈ 13.4 µg/mL); in the series on Staphylococcus aureus, 1.6 µM (≈ 3.39 µg/mL). Moreover, the hemolysis at 1 h, 50 µM in series [2] worked out at 20.3%. The selectivity ratio in series [3] is 4. Also, the hemolysis at 1 h, 25 µM in series [4] was 11.1%. Moreover, the hemolysis at 1 h, 100 µM in series [5] was 29%. Further, in the series on Erythrocyte, the HC10 was 25.4 µM.

Regarding `C[C@@H](c1ccccc1)N(CC(N)=O)C(=O)CN(CCCCN)C(=O)CN(CCCCN)C(=O)CN(C(=O)CN(C(=O)CN(CCCCN)C(=O)CN(C(=O)CN(C(=O)CN(CCCCN)C(=O)CN(CCc1c[nH]c2ccccc12)C(=O)CN(CCc1c[nH]c2ccccc12)C(=O)CN(CCCCN)C(=O)[C@H](Cc1c[nH]cn1)NC(=O)CNC(=O)CN)[C@@H](C)c1ccccc1)[C@@H](C)c1ccccc1)[C@@H](C)c1ccccc1)[C@@H](C)c1ccccc1` (H-GGH[Nlys][Gly(N(CH2)2(3-indolyl))][Gly(N(CH2)2(3-indolyl))][Nlys][Nspe][Nspe][Nlys][Nspe][Nspe][Nlys][Nlys][Nspe]-NH2), in series [1], the HC50 at 1 h was over 100 µM. The results for the minimal inhibitory concentration (MIC) in the series with Escherichia coli and in the series with Staphylococcus aureus were 25 µM (≈ 52.9 µg/mL) and 6.3 µM (≈ 13.3 µg/mL), respectively. Besides, the hemolysis at 1 h, 50 µM in series [2] worked out at 5.9%. The selectivity ratio in series [3] is over 4. In series [4], the hemolysis at 1 h, 25 µM amounted to 4.98%. The hemolysis at 1 h, 100 µM in series [5] stood at 6.4%. Further, the HC10 with Erythrocyte was over 100 µM.

Regarding `C[C@@H](c1ccccc1)N(CC(N)=O)C(=O)CN(CCCCN)C(=O)CN(CCCCN)C(=O)CN(C(=O)CN(C(=O)CN(CCCCN)C(=O)CN(C(=O)CN(C(=O)CN(CCCCN)C(=O)CN(CCc1c[nH]c2ccccc12)C(=O)CN(CCc1c[nH]c2ccccc12)C(=O)CNCCCCN)[C@@H](C)c1ccccc1)[C@@H](C)c1ccccc1)[C@@H](C)c1ccccc1)[C@@H](C)c1ccccc1`, in series [1], the HC50 at 1 h was over 100 µM. Also, the MIC with Escherichia coli turned out to be 6.3 µM (≈ 11.7 µg/mL); in the series with Staphylococcus aureus, 3.1 µM (≈ 5.78 µg/mL). Further, in series [2], the hemolysis at 1 h, 50 µM came out at 8.77%. In series [3], the selectivity ratio came out at 13.5. The hemolysis at 1 h, 25 µM in series [4] worked out at 4.95%. For the same compound, the hemolysis at 1 h, 100 µM in series [5] turned out to be 11.1%. Besides, the HC10 in the series with Erythrocyte came out at 75.3 µM.

Turning to `C[C@@H](c1ccccc1)N(CC(=O)NC[C@H](N)C(=O)NCC(=O)N[C@@H](Cc1c[nH]cn1)C(N)=O)C(=O)CN(CCCCN)C(=O)CN(C(=O)CN(C(=O)CN(CCCCN)C(=O)CN(C(=O)CN(C(=O)CN(CCCCN)C(=O)CN(C(=O)CN(C(=O)CNCCCCN)[C@@H](C)c1ccccc1)[C@@H](C)c1ccccc1)[C@@H](C)c1ccccc1)[C@@H](C)c1ccccc1)[C@@H](C)c1ccccc1)[C@@H](C)c1ccccc1` (H-[Nlys][Nspe][Nspe][Nlys][Nspe][Nspe][Nlys][Nspe][Nspe][Nlys][Nspe]-X1), the HC50 at 1 h in series [1] is over 100 µM. In addition, the minimum inhibitory concentration (MIC) with Escherichia coli and in the series with Staphylococcus aureus was 12.5 µM (≈ 24.2 µg/mL) throughout. In addition, the hemolysis at 1 h, 50 µM in series [2] is 6.22%. The selectivity ratio in series [3] worked out at 5. Besides, in series [4], the hemolysis at 1 h, 25 µM amounted to 0.04%. Moreover, the hemolysis at 1 h, 100 µM in series [5] was determined as 19.1%. Besides, the HC10 in the series on Erythrocyte was 62.6 µM.
